In patent publication US11447466B2, “Substituted indole compounds useful as inhibitors of TLR7/8/9” (BRISTOL-MYERS SQUIBB COMPANY, priority 2017, dated 2022) one finds IC50 data, which are given here for twelve compounds.

Assay type in all cases: cell-based
In one experiment the target is T1, human TLR9 (Homo sapiens, UniProt Q9NR96).
T1 construct: host or cells: HEK-Blue cells
T1 sequence (Q9NR96 26-1032): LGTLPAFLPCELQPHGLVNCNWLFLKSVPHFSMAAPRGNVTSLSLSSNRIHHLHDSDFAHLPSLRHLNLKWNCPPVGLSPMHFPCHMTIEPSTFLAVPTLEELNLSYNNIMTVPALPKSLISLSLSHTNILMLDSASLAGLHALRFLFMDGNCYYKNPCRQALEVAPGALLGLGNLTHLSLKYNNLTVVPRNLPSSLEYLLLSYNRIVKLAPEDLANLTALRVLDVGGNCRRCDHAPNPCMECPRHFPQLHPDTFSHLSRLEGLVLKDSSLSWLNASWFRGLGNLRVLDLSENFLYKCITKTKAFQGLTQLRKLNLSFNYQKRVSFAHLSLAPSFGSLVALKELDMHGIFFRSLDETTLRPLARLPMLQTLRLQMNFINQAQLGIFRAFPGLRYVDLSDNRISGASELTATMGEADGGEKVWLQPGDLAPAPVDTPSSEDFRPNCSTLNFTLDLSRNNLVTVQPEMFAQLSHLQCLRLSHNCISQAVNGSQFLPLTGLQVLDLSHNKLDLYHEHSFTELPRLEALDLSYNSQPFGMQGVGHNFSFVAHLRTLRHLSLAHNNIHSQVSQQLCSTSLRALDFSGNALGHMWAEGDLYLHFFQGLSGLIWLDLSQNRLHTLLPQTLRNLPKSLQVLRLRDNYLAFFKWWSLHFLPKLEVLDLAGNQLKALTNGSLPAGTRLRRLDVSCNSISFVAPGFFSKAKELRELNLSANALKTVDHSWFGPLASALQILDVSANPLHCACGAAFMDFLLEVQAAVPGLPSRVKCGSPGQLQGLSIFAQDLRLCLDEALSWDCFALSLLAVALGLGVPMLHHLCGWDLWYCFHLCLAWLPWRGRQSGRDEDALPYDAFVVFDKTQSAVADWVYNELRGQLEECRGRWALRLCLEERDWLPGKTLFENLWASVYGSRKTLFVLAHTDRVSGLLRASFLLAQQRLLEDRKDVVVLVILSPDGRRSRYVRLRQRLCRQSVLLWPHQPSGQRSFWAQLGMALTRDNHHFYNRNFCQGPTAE
The experiment in a line: TLR9 inhibition reporter assay (HEK-Blue SEAP reporter, ODN2006 stimulation). The note with it: HEK-Blue cells overexpressing human TLR9, SEAP reporter, ODN2006 5 nM, 22 hour incubation. An outline of the steps:
(§1)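 Compound treatment: 30 min, RT, 0.05 nM–50 μM final. Agonist: TLR7 gardiquimod 7.5 μM; TLR8 R848 15.9 μM; TLR9 ODN2006 5 nM. Incubation 22 h, 37 °C, 5% CO2. Readout SEAP, HEK-Blue Detection.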

For a further experiment, the target named is T2, human TLR7 (Homo sapiens, UniProt Q9NYK1).
T2 construct: host or cells: HEK-Blue cells
T2 sequence (Q9NYK1 27-1049): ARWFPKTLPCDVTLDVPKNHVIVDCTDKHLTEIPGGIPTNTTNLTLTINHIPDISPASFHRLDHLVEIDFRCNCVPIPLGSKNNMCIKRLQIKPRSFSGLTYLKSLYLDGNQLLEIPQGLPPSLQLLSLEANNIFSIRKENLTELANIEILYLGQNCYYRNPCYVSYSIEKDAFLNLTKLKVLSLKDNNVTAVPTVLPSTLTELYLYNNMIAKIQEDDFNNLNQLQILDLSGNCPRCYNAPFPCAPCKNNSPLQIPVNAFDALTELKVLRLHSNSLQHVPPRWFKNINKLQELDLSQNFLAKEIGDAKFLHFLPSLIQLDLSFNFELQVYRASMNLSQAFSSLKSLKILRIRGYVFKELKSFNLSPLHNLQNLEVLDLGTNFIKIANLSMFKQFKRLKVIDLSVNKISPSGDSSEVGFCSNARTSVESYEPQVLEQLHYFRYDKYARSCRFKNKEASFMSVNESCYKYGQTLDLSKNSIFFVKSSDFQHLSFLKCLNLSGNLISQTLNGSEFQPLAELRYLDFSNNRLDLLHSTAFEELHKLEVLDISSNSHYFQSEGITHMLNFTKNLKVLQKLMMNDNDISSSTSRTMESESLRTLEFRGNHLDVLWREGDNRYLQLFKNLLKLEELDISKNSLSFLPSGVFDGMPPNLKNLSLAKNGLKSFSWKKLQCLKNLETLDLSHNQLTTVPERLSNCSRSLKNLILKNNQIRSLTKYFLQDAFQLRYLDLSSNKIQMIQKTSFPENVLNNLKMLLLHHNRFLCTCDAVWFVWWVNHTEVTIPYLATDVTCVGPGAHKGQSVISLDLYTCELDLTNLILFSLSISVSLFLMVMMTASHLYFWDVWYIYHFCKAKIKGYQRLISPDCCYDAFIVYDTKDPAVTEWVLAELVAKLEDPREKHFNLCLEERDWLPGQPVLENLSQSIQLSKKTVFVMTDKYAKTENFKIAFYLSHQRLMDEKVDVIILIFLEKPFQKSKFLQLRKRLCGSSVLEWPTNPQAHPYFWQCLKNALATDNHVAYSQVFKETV
As to the kind of experiment: TLR7 inhibition reporter assay (HEK-Blue SEAP reporter, gardiquimod stimulation). The following applies: HEK-Blue cells overexpressing human TLR7, SEAP reporter, gardiquimod 7.5 μM, 22 hour incubation. An outline of the steps: as §1

Another experiment addresses T3, human TLR8 (Homo sapiens, UniProt Q9NR97).
T3 construct: host or cells: HEK-Blue cells
T3 sequence (Q9NR97 27-1041): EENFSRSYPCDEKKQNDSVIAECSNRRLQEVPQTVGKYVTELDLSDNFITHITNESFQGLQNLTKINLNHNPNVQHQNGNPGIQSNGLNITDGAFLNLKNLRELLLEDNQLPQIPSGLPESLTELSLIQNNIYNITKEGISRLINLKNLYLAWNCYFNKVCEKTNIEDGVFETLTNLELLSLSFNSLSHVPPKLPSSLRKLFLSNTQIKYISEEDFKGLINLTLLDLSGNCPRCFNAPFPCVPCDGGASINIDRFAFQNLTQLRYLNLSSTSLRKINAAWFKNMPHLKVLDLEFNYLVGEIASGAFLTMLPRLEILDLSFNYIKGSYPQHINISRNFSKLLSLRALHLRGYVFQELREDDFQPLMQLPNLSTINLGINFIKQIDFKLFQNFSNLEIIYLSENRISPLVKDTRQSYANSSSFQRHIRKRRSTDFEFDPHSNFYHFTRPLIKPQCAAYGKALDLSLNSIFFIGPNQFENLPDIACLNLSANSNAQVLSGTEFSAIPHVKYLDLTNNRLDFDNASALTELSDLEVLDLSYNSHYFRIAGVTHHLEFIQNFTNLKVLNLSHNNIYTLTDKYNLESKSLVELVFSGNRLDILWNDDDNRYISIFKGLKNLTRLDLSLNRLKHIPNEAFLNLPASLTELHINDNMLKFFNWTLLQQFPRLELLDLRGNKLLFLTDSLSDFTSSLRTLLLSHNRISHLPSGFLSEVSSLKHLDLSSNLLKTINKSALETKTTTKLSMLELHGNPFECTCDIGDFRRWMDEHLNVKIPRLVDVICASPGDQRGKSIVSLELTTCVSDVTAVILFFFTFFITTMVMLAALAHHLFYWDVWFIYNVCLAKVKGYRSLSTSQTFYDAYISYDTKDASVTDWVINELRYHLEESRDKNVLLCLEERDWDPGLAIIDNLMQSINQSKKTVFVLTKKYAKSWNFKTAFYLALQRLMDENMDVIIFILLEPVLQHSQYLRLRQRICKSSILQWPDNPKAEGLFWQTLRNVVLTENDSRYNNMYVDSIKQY
As to the kind of experiment: TLR8 inhibition reporter assay (HEK-Blue SEAP reporter, R848 stimulation). The following applies: HEK-Blue cells overexpressing human TLR8, SEAP reporter, R848 15.9 μM, 22 hour incubation. An outline of the steps: as §1

For `Cc1cc(-c2[nH]c3ccc(C4CCN(CC(=O)N(C)C)CC4)cc3c2C(C)C)c(C)n(C)c1=O` [Example 138, 2-(4-(3-isopropyl-2-(1,2,5-trimethyl-6-oxo-1,6-dihydropyridin-3-yl)-1H-indol-5-yl)piperidin-1-yl)-N,N-dimethylacetamide], the IC50 came to 7.61 µM on human TLR9, 0.0175 µM against human TLR7 and 0.0052 µM against human TLR8.
The like results for `Cc1c(-c2[nH]c3ccc(C4CCN(C5CCOCC5)CC4)cc3c2C(C)C)cn(C)c(=O)c1C#N` [Example 222, 5-(3-isopropyl-5-(1-(tetrahydro-2H-pyran-4-yl)piperidin-4-yl)-1H-indol-2-yl)-1,4-dimethyl-2-oxo-1,2-dihydropyridine-3-carbonitrile] were, in that order, 3.07 µM, 0.0156 µM and 0.0009 µM.
With `Cc1c(-c2[nH]c3ccc(C4CCN(CC5COC5)CC4)cc3c2C(C)C)cn(C)c(=O)c1Cl` [Example 92, 3-chloro-5-(3-isopropyl-5-(1-(oxetan-3-ylmethyl)piperidin-4-yl)-1H-indol-2-yl)-1,4-dimethylpyridin-2(1H)-one], the 50% inhibitory concentration (IC50) on human TLR9 amounted to 8.51 µM; against human TLR7 it was 0.0032 µM; on human TLR8, 0.0028 µM.
For `Cc1c(-c2[nH]c3ccc(C4CCN(C5CCOCC5)CC4)cc3c2C(C)C)cc(C#N)c(=O)n1C` [Example 220, 5-(3-isopropyl-5-(1-(tetrahydro-2H-pyran-4-yl)piperidin-4-yl)-1H-indol-2-yl)-1,6-dimethyl-2-oxo-1,2-dihydropyridine-3-carbonitrile], the figures for the IC50 against human TLR9, at human TLR7 and at human TLR8 were 2.78 µM, 0.0245 µM and 0.0014 µM, respectively.
For the compound `Cc1cc(-c2[nH]c3ccc(C4CCN(CCC#N)CC4)cc3c2C(C)C)cn(C)c1=O` [Example 76, 3-(4-(2-(1,5-dimethyl-6-oxo-1,6-dihydropyridin-3-yl)-3-isopropyl-1H-indol-5-yl)piperidin-1-yl)propanenitrile], the IC50 against human TLR9 was 19.9 µM; on human TLR7 it was 0.0044 µM; against human TLR8, 0.0047 µM.
The like results for `Cc1c(-c2[nH]c3ccc(C4CCN(C5CCCC5)CC4)cc3c2C(C)C)cn(C)c(=O)c1Cl` [Example 97, 3-chloro-5-(5-(1-cyclopentylpiperidin-4-yl)-3-isopropyl-1H-indol-2-yl)-1,4-dimethylpyridin-2(1H)-one] were, in that order, 2.05 µM, 0.0052 µM and 0.0097 µM.
Take `COCc1cc(-c2[nH]c3ccc(C4CCN(CC(=O)N(C)C)CC4)cc3c2C(C)C)cn(C)c1=O` [Example 351, 2-(4-(3-isopropyl-2-(5-(methoxymethyl)-1-methyl-6-oxo-1,6-dihydropyridin-3-yl)-1H-indol-5-yl)piperidin-1-yl)-N,N-dimethylacetamide]: the IC50 against human TLR9 is 11.9 µM; against human TLR7, 0.0785 µM; against human TLR8, 0.135 µM.
`COCCn1cc(-c2[nH]c3ccc(C4CCN(C5CCOCC5)CC4)cc3c2C(C)C)cc(C)c1=O` [Example 261, 5-(3-isopropyl-5-(1-(tetrahydro-2H-pyran-4-yl)piperidin-4-yl)-1H-indol-2-yl)-1-(2-methoxyethyl)-3-methylpyridin-2(1H)-one]: the IC50 at human TLR9 was 3.36 µM; against human TLR7 it was 0.0088 µM; against human TLR8, 0.0071 µM.
Take `Cc1cc(-c2[nH]c3ccc(C4CCN(C5CCC(C(C)(C)O)CC5)CC4)cc3c2C(C)C)cn(C)c1=O` (stereo not drawn) [Example 267, 5-(5-(1-(4-(2-hydroxypropan-2-yl)cyclohexyl)piperidin-4-yl)-3-isopropyl-1H-indol-2-yl)-1,3-dimethylpyridin-2(1H)-one]: the IC50 against human TLR9 is 3.54 µM; on human TLR7, 0.0022 µM; at human TLR8, 0.0066 µM.
In the case of `Cc1c(-c2[nH]c3ccc(C4CCN(CCC(C)(C)O)CC4)cc3c2C(C)C)cn(C)c(=O)c1C` [Example 73, 5-(5-(1-(3-hydroxy-3-methylbutyl)piperidin-4-yl)-3-isopropyl-1H-indol-2-yl)-1,3,4-trimethylpyridin-2(1H)-one], the 50% inhibitory concentration (IC50) on human TLR9 is 6.07 µM; at human TLR7 it was 0.008 µM; at human TLR8, 0.0033 µM.
The like results for `CC(=O)N1CC(N2CCC(c3ccc4[nH]c(-c5cn(C)c(=O)c(Cl)c5C)c(C(C)C)c4c3)CC2)C1` [Example 174, 5-(5-(1-(1-acetylazetidin-3-yl)piperidin-4-yl)-3-isopropyl-1H-indol-2-yl)-3-chloro-1,4-dimethylpyridin-2(1H)-one] were, in that order, no less than 50 µM, 0.0157 µM and 0.0448 µM.
The like results for `COCc1cc(-c2[nH]c3ccc(C4CCN(C(=O)CN(C)C)CC4)cc3c2C(C)C)cn(C)c1=O` [Example 277, 5-(5-(1-(dimethylglycyl)piperidin-4-yl)-3-isopropyl-1H-indol-2-yl)-3-(methoxymethyl)-1-methylpyridin-2(1H)-one] were, in that order, 15.6 µM, 0.0093 µM and 0.021 µM.
